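Cells were grown in 96-well plates and exposed to each compound for 48 hours at five concentrations; endpoints were interpolated linearly between bracketing concentrations, or set to the highest concentration if not reached. GI50: concentration for 50% inhibition of growth.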 The source made the active and inactive calls. No stated cut-off is given here; in the data, active = GI50 up to about 1.1 µM and inactive = higher.
Experiments:
Assay in all cases: inhibition of tumour cell growth, NCI panel, 48 h
[1] = tested on: HT-29
[2] = tested on: XF498
[3] = tested on: A549
[4] = tested on: ACHN
[5] = tested on: SF-268
[6] = tested on: DMS-273
[7] = tested on: KM12
[8] = tested on: RPMI-8226
[9] = tested on: LXFL 529
[10] = tested on: HCT-15
[11] = tested on: COLO 205
[12] = tested on: UACC-62
[13] = tested on: SK-OV-3
[14] = tested on: A498
[15] = tested on: OVCAR-5
[16] = tested on: OVCAR-8
[17] = tested on: SW-620
[18] = tested on: SNB-75
[19] = tested on: SR
[20] = tested on: NCI-H522
[21] = tested on: K562
[22] = tested on: U-251
[23] = tested on: M19-MEL
[24] = tested on: HOP-18
[25] = tested on: TK-10
[26] = tested on: KM-20L2
[27] = tested on: Malme-3M
[28] = tested on: SNB-78
[29] = tested on: HCT-116
[30] = tested on: SNB-19
[31] = tested on: SN12C
[32] = tested on: UACC-257
[33] = tested on: MOLT-4
[34] = tested on: EKVX
[35] = tested on: HOP-62
[36] = tested on: NCI-H460
[37] = tested on: HL-60
[38] = tested on: SK-MEL-5
[39] = tested on: SK-MEL-2
[40] = tested on: LOX IMVI
[41] = tested on: M14
[42] = tested on: OVCAR-3
[43] = tested on: IGROV-1
[44] = tested on: SK-MEL-28
[45] = tested on: RXF 393
[46] = tested on: SF-539
[47] = tested on: 786-0
[48] = tested on: DLD-1
[49] = tested on: CCRF-CEM
[50] = tested on: HOP-92
[51] = tested on: DMS-114
[52] = tested on: UO-31
[53] = tested on: NCI-H226
[54] = tested on: OVCAR-4
[55] = tested on: HCC 2998
[56] = tested on: SF-295
[57] = tested on: NCI-H23
[58] = tested on: CAKI-1

Measured: GI50

O=C(CSc1c2ccccc2nc2ccccc12)Nc1ccccc1-c1ccccc1NC(=O)CSc1c2ccccc2nc2ccccc12
inactive: [1] 34.8 µM | [2] 19.1 µM | [3] 13.3 µM | [4] 31.5 µM | [5] 26.8 µM | [6] 32.2 µM | [7] 21.5 µM | [8] 4.46 µM | [9] 9.46 µM | [11] 30.1 µM | [12] 18 µM | [13] 80.4 µM | [14] 23 µM | [15] 56.6 µM | [16] 28.5 µM | [17] 28.6 µM | [18] 42.2 µM | [19] 11.1 µM | [20] 9.42 µM | [21] 2.37 µM | [22] 26.7 µM | [23] 23.1 µM | [24] 79.1 µM | [25] 60.4 µM | [26] 31.3 µM | [27] 30.8 µM | [28] 27.6 µM | [29] 27.2 µM | [30] 22.4 µM | [31] 28 µM | [32] 22 µM | [33] 5.27 µM | [34] 21.4 µM | [35] 31.8 µM | [36] 29 µM | [37] 6.17 µM | [38] 12.8 µM | [39] 17.6 µM | [40] 17.2 µM | [41] 24.4 µM | [42] 16.4 µM | [43] 18.4 µM | [44] 20.8 µM | [45] 21.5 µM | [46] 14.4 µM | [47] 6.76 µM | [48] 13.9 µM | [49] > 24.6 µM | [50] 30.8 µM | [51] 15 µM | [52] 34.2 µM | [53] 29.2 µM | [54] 1.48 µM | [55] 17.4 µM | [56] 25.6 µM | [57] 18.9 µM | [58] 26.6 µM
20.2 µM: [10]
